Tests used:
[1] = system: BrdU-positive cells in the dentate gyrus; experiment: BrdU labeling of cell proliferation, sacrifice 24 hr after BrdU; assay type: in vivo, mouse; conditions: for cell proliferation (BrdU-labeled cells in the SGZ): 1 mg/kg/day mini pumps; for BrdU-labeled cells in dentate gyrus: 27 days of treatment, 24 hours after BrdU
Description: (§1) To assess the effect of antidepressant or X-irradiation treatments on the number of BrdU-positive cells, mice were administered BrdU (4×75 mg/kg i.p., dissolved in saline, every 2 hr; Roche Diagnostic, Indianapolis, Ind.) and sacrificed 24 hr after the last BrdU injection (FIG. 2A, 3B, 5C-D). To determine cell survival and phenotype after the various antidepressant treatments, fluoxetine, imipramine and vehicle-treated mice were allowed to survive for 28 days after the last BrdU injection (FIG. 2C-D, 3C). After deep anesthesia with a mixture of ketamine/xylazine (100 mg/kg and 7 mg/kg respectively), mice were transcardially perfused (cold saline for 2 min, followed by 4% cold paraformaldehyde/0.1 M phosphate buffer for 5 min) and brains were collected for immunohistochemistry. All brains were post-fixed overnight in 4% paraformaldehyde at 4° C., then cryoprotected in 30% sucrose and stored at 4° C. Serial sections of the brains were cut (35 μm sections) through the entire hippocampus (plates 41-61; Franklin and Paxinos, 1997) on a cryostat and stored in PBS with 0.1% NaN3. For DAB staining, sections were slide-mounted and boiled in citric acid, pH 6.0, for 5 min, rinsed with PBS, and treated with 0.01% trypsin in Tris/CaCl2 for 10 min. Brain sections were incubated for 30 min with 2N HCl and blocked with 5% NGS (Jackson ImmunoResearch, West Grove, Pa.). Sections were then incubated over night at room temperature with anti-mouse BrdU (1:100; Becton-Dickinson). After washing with PBS, sections were incubated for 1 hr with secondary antibody (1:200 biotinylated goat anti-mouse; Sigma-Aldrich, St. Louis, Mo.) followed by amplification with an avidin-biotin complex (Vector Laboratories). The staining was visualized with DAB (Sigma-Aldrich, St. Louis, Mo.). For fluorescent double-labeling, the DNA-denaturation procedure consisted of the following steps: 2 hr incubation in 50% formamide-2×SSC at 65° C., 5 min rinse in 2×SSC, 30 min incubation in 2N HCl at 37° C., and 10 min rinse in 0.1 M boric acid, pH 8.5. Sections were then incubated in TBS-0.1% Triton X-100 (Tx)-5% normal donkey serum (NDS) for 30 min, followed by anti-rat BrdU primary antibody (1:100; Accurate Westbury, N.Y. or Serotec, Oxford, UK) in TBS/NDS/Tx for 24 hrs at 4° C. in combination with either a mouse monoclonal antibody to NeuN (1:500; Chemicon, Temecula, Calif.) or a rabbit polyclonal antibody to GFAP (1:800; DAKO, Carpinteria, Calif.). The fluorescent secondary antibodies used were biotin-conjugated donkey anti-rat (1:200) plus streptavidin Cy2 (1:200), donkey anti-mouse Cy3 (1:500), or donkey anti-rabbit Cy3 (1:500) (Jackson ImmunoResearch, West Grove, Pa.). Fluorescent images were taken with a Bio-Rad MRC 1000 confocal laser scanning system coupled to a Zeiss Axiovert 100 inverted microscope. For each image acquisition, a Kalman average of five frames was used. For quantification of BrdU/NeuN or BrdU/GFAP double-labeled cells, at least 50 BrdU-positive cells per animal were analyzed using Z-plane sectioning (1 μm steps).
It has recently been shown that various antidepressant treatments, including fluoxetine, increase neurogenesis in the dentate gyrus (DG) of the rat hippocampus (Malberg et al., 2000). […] To confirm that chronic fluoxetine induces changes in the number of BrdU-positive cells in the DG, we treated adult mice with either vehicle or fluoxetine for 5, 11 or 28 days. On the final day of treatment, all animals were injected with BrdU (four injections of 75 mg/kg), sacrificed 24 hours later, and perfused for immunohistochemistry. The treatment with fluoxetine caused a 60% increase in the number of BrdU positive cells in the DG of animals after either 11 or 28 days, but had no effect in animals treated for 5 days (FIGS. 2A and B).
(§2) In this set of experiments, wild type and 5-HT1A receptor KO mice were injected with BrdU following 27 days of treatment with fluoxetine, imipramine, or vehicle. […]

129/SvEv mice = experiment: Novelty-suppressed feeding test (NSF); assay type: in vivo, mouse
Description: The Novelty-suppressed feeding test was carried out during a 5-min period as previously described (Santarelli et al., 2001). Briefly, the testing apparatus consisted of a plastic box, 50×50×20 cm. The floor was covered with approximately 2 cm of wooden bedding. Twenty-four hours prior to behavioral testing, all food was removed from the home cage. At the time of testing, a single pellet of food (regular chow) was placed on a white paper platform positioned in the center of the box. An animal was placed in a corner of the maze and a stopwatch was immediately started. The measure of interest (chewing) was scored when the mouse was sitting on its haunches and biting with the use of forepaws. Immediately after this test, mice were transferred to their home cage and the amount of food consumed in 5 min was measured (home cage food consumption). […] Mice were always tested during the light period.
The NSF is a conflict test in which food-deprived animals are presented with a food pellet placed in the center of a brightly-lit open field. This paradigm elicits competing motivations: the drive to eat the food pellet, and the fear of venturing into the center of the arena.
Haloperidol, an antipsychotic that antagonizes D2 dopamine receptors, was used as a negative control because it is devoid of antidepressant activity in humans. NSF performance was assessed after either 5 or 28 days of oral drug administration.

[2] = 129/SvEv, mouse, in vivo, po
Description: Fluoxetine (Eli Lilly, Indianapolis, Ind.), Imipramine (Sigma-Aldrich, St. Louis, Mo.), Desipramine (Sigma-Aldrich, St. Louis, Mo.) and Haloperidol (Sigma-Aldrich, St. Louis, Mo.) were dissolved in tap water at a concentration of 80, 160, 160, and 8 mg/L, respectively. These concentration were established based on the average drinking amount and average weight of the mice used in the study to achieve a final dose of 10 (fluoxetine), 20 (imipramine and desipramine) and 1 (haloperidol) mg/kg/day. […] Vehicle animals received tap water. 8-hydroxy-2-(di-n-propylamino) tetralin (8-OH-DPAT, Sigma-Aldrich, St. Louis, Mo.) was dissolved in sterile saline (0.9% NaCl) at a concentration of 4.5 mg/ml, and delivered through Alzet osmotic mini-pumps (model 2004, Alzet, Cupertino, Calif.) implanted subcutaneously 28 days prior to behavioral testing. The final average dose delivered was 1 mg/kg/day. Sham mice were implanted with mini-pumps containing sterile saline.

BALB/c mice = experiment: Chronic unpredictable stress paradigm (CUS); assay type: in vivo, mouse; conditions: for state of the fur (coat score) / grooming latency: 10 mg/kg/day i.p.; for weight loss induced by stress: data not shown
Description: The stress regimen used is a variant of the chronic mild stress procedures described by Willner et al. (Willner et al., 1992). Mice were subjected to various and repeated unpredictable stressors for a period of five weeks (Griebel et al., 2002). The different stressors used were: alterations of the bedding (repeated sawdust changing, removal of sawdust, damp sawdust, substitution of sawdust with 37° C. water); cage tilting (45°); predator sounds (15 min.); cage shift (mice were positioned in the empty cage of another male); light to dark or dark to light shifts (four light/dark successions of 30 min every 24 hours); reversal of the light/dark cycle. The fluoxetine treatment (10 mg/kg/day, i.p.) started at the beginning of the third week. The state of the coat was assessed at the end of the stress regimen (end of fifth week). The total score resulted from the sum of the score of seven different body parts: head, neck, dorsal coat, ventral coat, tail, forepaws and the hindpaws. A score of 0 was given for a well-groomed coat and 1 for a spoiled coat (see Griebel, 2002). The grooming latency was assessed at the end of the sixth week. This test consisted in squirting 200 μl of a 10% sucrose solution on the mouse's snout. The latency to start grooming was then recorded.
The CUS protocol consists of the sequential application of a number of stressors, presented in a varied and unpredictable manner during 5 weeks. The continued application of these stressors produces a deterioration in the state of the coat, an impaired grooming response, and weight loss (Griebel et al., 2002; Willner et al., 1992). ADs such as fluoxetine can reverse these stress-induced effects after chronic, but not acute, administration (Griebel et al., 2002; Willner et al., 1992).
Sham and irradiated mice were subjected to five weeks of CUS, beginning two weeks after the final X-ray dose, and half of the animals in each group were administered fluoxetine (10 mg/kg/day, i.p.) from weeks 3-6. The state of each animal's fur was assessed at the end of the stress period, and assigned a score based on observations from several body regions (see methods). Fluoxetine treatment was continued for one more week, after which we measured the latency to begin grooming following application of a sucrose solution to the head of each animal.

[3] = system: BrdU-positive cells in the dentate gyrus; experiment: BrdU labeling of cell proliferation, sacrifice 24 hr after BrdU; assay type: in vivo, mouse; conditions: chronic treatment
[4] = system: BrdU-positive cells within the SGZ and granule cell layer; experiment: Survival and phenotype of BrdU-positive cells 28 days after BrdU injection; assay type: in vivo, mouse; conditions: for BrdU-positive cells surviving 28 days after BrdU injection: chronic treatment
Description: as §1
To determine the fate of hippocampal cells labeled with BrdU following chronic treatment with either fluoxetine or vehicle, animals were allowed to survive for a period of four weeks after injection of BrdU. During this time fluoxetine oral treatment was suspended and animals were returned to tap water. Brain sections were co-labeled with antibodies raised against BrdU and either the mature neuronal marker NeuN or the astroglial marker GFAP. […] The percentage of BrdU-positive cells within the SGZ and granule cell layer that expressed NeuN was 70±2%, and the percentage of BrdU-positive cells that expressed GFAP was 15±3%. These proportions were not influenced by the antidepressant treatment, as previously reported (Malberg et al., 2000).
as §2

[5] = 28-day treatment via drinking water, compared to vehicle
[6] = 5-HT1A knockout (-/-) mice, 28 days, vs vehicle
[7] = wild type (+/+) mice, 28 days, vs vehicle
[8] = four weeks after BrdU, chronic fluoxetine or vehicle, proportions not influenced by treatment
[9] = 5-day treatment via drinking water, compared to vehicle
[10] = X-irradiated animals, chronic treatment
[11] = sham (non-irradiated) animals, chronic treatment

Compound | latency to feed (129/SvEv mice; [5]) | time by which steady serum levels had been achieved [2] [days] | latency to feed (129/SvEv mice; [6]) | latency to feed (129/SvEv mice; [7]) | BrdU-labeled cells in dentate gyrus ([1]; 5-HT1A receptor KO mice) | BrdU-labeled cells in dentate gyrus ([1]; wild type mice) | BrdU-positive cells surviving 28 days after BrdU injection ([4]; 5-HT1A receptor KO mice) | BrdU-positive cells surviving 28 days after BrdU injection ([4]; WT mice) | latency to feed (129/SvEv mice; [9]) | latency to feed (129/SvEv mice; [10]) | latency to feed (129/SvEv mice; [11]) | other results
CCCN(CCC)C1CCc2cccc(O)c2C1 (stereo not shown) [8-OH-DPAT, 8-hydroxy-2-(di-n-propylamino) tetralin] | – | – | – | – | – | – | – | – | – | – | – | cell proliferation (BrdU-labeled cells in the SGZ) ([1]; 5-HT1A receptor KO mice, chronic treatment): not observed; cell proliferation (BrdU-labeled cells in the SGZ) ([1]; WT mice, chronic treatment): increase in cell proliferation; latency to feed (129/SvEv mice; 5-HT1A receptor KO mice, 28 days s.c. osmotic mini pumps, 1 mg/kg/day, vs sham): ineffective; latency to feed (129/SvEv mice; WT mice, 28 days s.c. osmotic mini pumps, 1 mg/kg/day, vs sham): significantly decreased
O=C(CCCN1CCC(O)(c2ccc(Cl)cc2)CC1)c1ccc(F)cc1 [Haloperidol] | ineffective | – | – | – | – | – | – | – | – | – | – | –
CNCCCN1c2ccccc2CCc2ccccc21 [desipramine, Desipramine] | significant decreases | ≤ 5 | effective | significantly decreased | – | – | – | – | – | – | – | –
CNCCC(Oc1ccc(C(F)(F)F)cc1)c1ccccc1 (stereo not shown) [fluoxetine, Fluoxetine] | significant decreases | ≤ 5 | insensitive | significantly decreased | had no effect | two-fold increase | not in KO | had an effect | had no effect | no such anxiolytic-like effect | significant reduction | state of the fur (coat score) (BALB/c mice; irradiated animals): absent; weight loss induced by stress (BALB/c mice; irradiated animals): blocked this effect; grooming latency (BALB/c mice; irradiated mice): not in irradiated mice; state of the fur (coat score) (BALB/c mice; sham animals): significantly improved; weight loss induced by stress (BALB/c mice; sham animals): trend to reverse the weight loss; grooming latency (BALB/c mice; sham mice): decreased; cell proliferation in the SVZ [3]: had no effect; increase in the number of BrdU positive cells in the DG ([1]; after either 11 or 28 days of treatment, vs vehicle): 60%; number of BrdU positive cells in the DG ([1]; animals treated for 5 days): had no effect; cell proliferation after irradiation ([1]; irradiated animals, chronic treatment): had no effect; cell proliferation in the SGZ ([1]; non-irradiated mice, chronic treatment): increased cell proliferation; percentage of BrdU-positive cells that expressed GFAP [4, 8]: 15±3%; percentage of BrdU-positive cells that expressed NeuN [4, 8]: 70±2%
CN(C)CCCN1c2ccccc2CCc2ccccc21 [imipramine, Imipramine] | significant decreases | ≤ 5 | effective | significantly decreased | significant increase | significant increase | effective | effective | had no effect | no such anxiolytic-like effect | significant reduction | increase in the number of BrdU positive cells (SGZ and GCL) ([1]; both genotypes (+/+ and 5-HT1A -/-), 4 weeks of treatment): ~2 fold
NCCC(Oc1ccc(C(F)(F)F)cc1)c1ccccc1 (stereo not shown) [nor-fluoxetine] | – | ≤ 5 | – | – | – | – | – | – | – | – | – | –

Reference: patent publication US20060078499A1, “Use of hedgehog agonist to treat depression” (priority 2003, published 2006)
